Experimental data: patent US9113629B2, “4-amino-6-(4-substituted-phenyl)-picolinates and 6-amino-2-(4-substituted-phenyl)-pyrimidine-4-carboxylates and their use as herbicides” (DOW AGROSCIENCES LLC, priority 2013, dated 2015)

Test system: Key Broadleaf Weed and Crop Species
Test: Post-emergent Test II herbicidal activity (Table 5)
Assay type: in vivo
Details: post-emergence, 336 h; ABUTH: velvetleaf (Abutilon theophrasti); 70 g ai/ha; post-emergent; 14 days after application; read-out: Visual Growth Reduction (%) 14 Days After Application ABUTH
Outline: (§1)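 Foliar application at 187 L/ha to greenhouse-grown seedlings (first or second true leaf); subirrigation thereafter. Visual 0–100% injury at 14 d relative to untreated plants.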

SMILES | pest or weed control at 70 g/ha [%]
C=Cc1c(C(=O)OC)nc(-c2ccc(C(F)(F)F)c(F)c2)c(F)c1N [Compound 12] | 75 to 84

Same assay, conditions: post-emergence, 336 h; ABUTH: velvetleaf (Abutilon theophrasti); 140 g ai/ha; post-emergent; 14 days after application; read-out: Visual Growth Reduction (%) 14 Days After Application ABUTH

SMILES | pest or weed control at 140 g/ha [%]
C=Cc1c(C(=O)OC)nc(-c2ccc(C(F)(F)F)c(F)c2)c(F)c1N [Compound 12] | 85 to 94

Same assay, conditions: post-emergence, 336 h; AMARE: redroot pigweed (Amaranthus retroflexus); 70 g ai/ha; post-emergent; 14 days after application; read-out: Visual Growth Reduction (%) 14 Days After Application AMARE

SMILES | pest or weed control at 70 g/ha [%]
C=Cc1c(C(=O)OC)nc(-c2ccc(C(F)(F)F)c(F)c2)c(F)c1N [Compound 12] | 0 to 29

Same assay, conditions: post-emergence, 336 h; AMARE: redroot pigweed (Amaranthus retroflexus); 140 g ai/ha; post-emergent; 14 days after application; read-out: Visual Growth Reduction (%) 14 Days After Application AMARE

SMILES | pest or weed control at 140 g/ha [%]
C=Cc1c(C(=O)OC)nc(-c2ccc(C(F)(F)F)c(F)c2)c(F)c1N [Compound 12] | 45 to 59

Same assay, conditions: post-emergence, 336 h; BRSNN: oilseed-rape, canola (Brassica napus); 70 g ai/ha; post-emergent; 14 days after application; read-out: Visual Growth Reduction (%) 14 Days After Application BRSNN

SMILES | pest or weed control at 70 g/ha [%]
C=Cc1c(C(=O)OC)nc(-c2ccc(C(F)(F)F)c(F)c2)c(F)c1N [Compound 12] | 0 to 29

Same assay, conditions: post-emergence, 336 h; BRSNN: oilseed-rape, canola (Brassica napus); 140 g ai/ha; post-emergent; 14 days after application; read-out: Visual Growth Reduction (%) 14 Days After Application BRSNN

SMILES | pest or weed control at 140 g/ha [%]
C=Cc1c(C(=O)OC)nc(-c2ccc(C(F)(F)F)c(F)c2)c(F)c1N [Compound 12] | 0 to 29

Same assay, conditions: post-emergence, 336 h; CHEAL: lambsquarters (Chenopodium album); 70 g ai/ha; post-emergent; 14 days after application; read-out: Visual Growth Reduction (%) 14 Days After Application CHEAL

SMILES | pest or weed control at 70 g/ha [%]
C=Cc1c(C(=O)OC)nc(-c2ccc(C(F)(F)F)c(F)c2)c(F)c1N [Compound 12] | 0 to 29

Same assay, conditions: post-emergence, 336 h; CHEAL: lambsquarters (Chenopodium album); 140 g ai/ha; post-emergent; 14 days after application; read-out: Visual Growth Reduction (%) 14 Days After Application CHEAL

SMILES | pest or weed control at 140 g/ha [%]
C=Cc1c(C(=O)OC)nc(-c2ccc(C(F)(F)F)c(F)c2)c(F)c1N [Compound 12] | 0 to 29

Same assay, conditions: post-emergence, 336 h; EPHHL: wild poinsettia (Euphorbia heterophylla); 70 g ai/ha; post-emergent; 14 days after application; read-out: Visual Growth Reduction (%) 14 Days After Application EPHHL

SMILES | pest or weed control at 70 g/ha [%]
C=Cc1c(C(=O)OC)nc(-c2ccc(C(F)(F)F)c(F)c2)c(F)c1N [Compound 12] | 45 to 59

Same assay, conditions: post-emergence, 336 h; EPHHL: wild poinsettia (Euphorbia heterophylla); 140 g ai/ha; post-emergent; 14 days after application; read-out: Visual Growth Reduction (%) 14 Days After Application EPHHL

SMILES | pest or weed control at 140 g/ha [%]
C=Cc1c(C(=O)OC)nc(-c2ccc(C(F)(F)F)c(F)c2)c(F)c1N [Compound 12] | 95 to 100

Same assay, conditions: post-emergence, 336 h; HELAN: sunflower (Helianthus annuus); 70 g ai/ha; post-emergent; 14 days after application; read-out: Visual Growth Reduction (%) 14 Days After Application HELAN

SMILES | pest or weed control at 70 g/ha [%]
C=Cc1c(C(=O)OC)nc(-c2ccc(C(F)(F)F)c(F)c2)c(F)c1N [Compound 12] | 0 to 29

Same assay, conditions: post-emergence, 336 h; HELAN: sunflower (Helianthus annuus); 140 g ai/ha; post-emergent; 14 days after application; read-out: Visual Growth Reduction (%) 14 Days After Application HELAN

SMILES | pest or weed control at 140 g/ha [%]
C=Cc1c(C(=O)OC)nc(-c2ccc(C(F)(F)F)c(F)c2)c(F)c1N [Compound 12] | 0 to 29

Same assay, conditions: post-emergence, 336 h; VIOTR: wild pansy (Viola tricolor); 70 g ai/ha; post-emergent; 14 days after application; read-out: Visual Growth Reduction (%) 14 Days After Application VIOTR

SMILES | pest or weed control at 70 g/ha [%]
C=Cc1c(C(=O)OC)nc(-c2ccc(C(F)(F)F)c(F)c2)c(F)c1N [Compound 12] | 0 to 29

Same assay, conditions: post-emergence, 336 h; VIOTR: wild pansy (Viola tricolor); 140 g ai/ha; post-emergent; 14 days after application; read-out: Visual Growth Reduction (%) 14 Days After Application VIOTR

SMILES | pest or weed control at 140 g/ha [%]
C=Cc1c(C(=O)OC)nc(-c2ccc(C(F)(F)F)c(F)c2)c(F)c1N [Compound 12] | 0 to 29

Test system: not given
Test: not given
Details: not given

melting point [°C] | SMILES
77 to 78 | C=Cc1c(C(=O)OC)nc(-c2ccc(C(F)(F)F)c(F)c2)c(F)c1N [Compound 12]

Test system: Key Grass and Sedge Weeds as well as Grass Crops
Test: Post-emergent Test II herbicidal activity (Table 6)
Assay type: in vivo
Details: Triticum aestivum, post-emergence, 336 h, TRZSS (wheat), application rate 70 g ai/ha, read-out: Visual Growth Reduction (%) 14 Days After Application, TRZSS
Outline: as §1

SMILES | pest or weed control at 70 g/ha [%]
C=Cc1c(C(=O)OC)nc(-c2ccc(C(F)(F)F)c(F)c2)c(F)c1N [Compound 12] | 0 to 29

Same assay, conditions: Triticum aestivum, post-emergence, 336 h, TRZSS (wheat), application rate 140 g ai/ha, read-out: Visual Growth Reduction (%) 14 Days After Application, TRZSS

SMILES | pest or weed control at 140 g/ha [%]
C=Cc1c(C(=O)OC)nc(-c2ccc(C(F)(F)F)c(F)c2)c(F)c1N [Compound 12] | 0 to 29

Same assay, conditions: post-emergence, 336 h, CYPES: yellow nutsedge (Cyperus esculentus), application rate 70 g ai/ha, read-out: Visual Growth Reduction (%) 14 Days After Application, CYPES

SMILES | pest or weed control at 70 g/ha [%]
C=Cc1c(C(=O)OC)nc(-c2ccc(C(F)(F)F)c(F)c2)c(F)c1N [Compound 12] | 30 to 44

Same assay, conditions: post-emergence, 336 h, CYPES: yellow nutsedge (Cyperus esculentus), application rate 140 g ai/ha, read-out: Visual Growth Reduction (%) 14 Days After Application, CYPES

SMILES | pest or weed control at 140 g/ha [%]
C=Cc1c(C(=O)OC)nc(-c2ccc(C(F)(F)F)c(F)c2)c(F)c1N [Compound 12] | 45 to 59

Same assay, conditions: post-emergence, 336 h, DIGSA: crabgrass (Digitaria sanguinalis), application rate 70 g ai/ha, read-out: Visual Growth Reduction (%) 14 Days After Application, DIGSA

SMILES | pest or weed control at 70 g/ha [%]
C=Cc1c(C(=O)OC)nc(-c2ccc(C(F)(F)F)c(F)c2)c(F)c1N [Compound 12] | 0 to 29

Same assay, conditions: post-emergence, 336 h, DIGSA: crabgrass (Digitaria sanguinalis), application rate 140 g ai/ha, read-out: Visual Growth Reduction (%) 14 Days After Application, DIGSA

SMILES | pest or weed control at 140 g/ha [%]
C=Cc1c(C(=O)OC)nc(-c2ccc(C(F)(F)F)c(F)c2)c(F)c1N [Compound 12] | 0 to 29

Same assay, conditions: post-emergence, 336 h, ECHCG: barnyardgrass (Echinochloa crus-galli), application rate 70 g ai/ha, read-out: Visual Growth Reduction (%) 14 Days After Application, ECHCG

SMILES | pest or weed control at 70 g/ha [%]
C=Cc1c(C(=O)OC)nc(-c2ccc(C(F)(F)F)c(F)c2)c(F)c1N [Compound 12] | 0 to 29

Same assay, conditions: post-emergence, 336 h, ECHCG: barnyardgrass (Echinochloa crus-galli), application rate 140 g ai/ha, read-out: Visual Growth Reduction (%) 14 Days After Application, ECHCG

SMILES | pest or weed control at 140 g/ha [%]
C=Cc1c(C(=O)OC)nc(-c2ccc(C(F)(F)F)c(F)c2)c(F)c1N [Compound 12] | 0 to 29

Same assay, conditions: post-emergence, 336 h, ORYSA: rice (Oryza sativa), application rate 70 g ai/ha, read-out: Visual Growth Reduction (%) 14 Days After Application, ORYSA

SMILES | pest or weed control at 70 g/ha [%]
C=Cc1c(C(=O)OC)nc(-c2ccc(C(F)(F)F)c(F)c2)c(F)c1N [Compound 12] | 0 to 29

Same assay, conditions: post-emergence, 336 h, ORYSA: rice (Oryza sativa), application rate 140 g ai/ha, read-out: Visual Growth Reduction (%) 14 Days After Application, ORYSA

SMILES | pest or weed control at 140 g/ha [%]
C=Cc1c(C(=O)OC)nc(-c2ccc(C(F)(F)F)c(F)c2)c(F)c1N [Compound 12] | 0 to 29

Same assay, conditions: post-emergence, 336 h, SETFA: giant foxtail (Setaria faberi), application rate 70 g ai/ha, read-out: Visual Growth Reduction (%) 14 Days After Application, SETFA

SMILES | pest or weed control at 70 g/ha [%]
C=Cc1c(C(=O)OC)nc(-c2ccc(C(F)(F)F)c(F)c2)c(F)c1N [Compound 12] | 0 to 29

Same assay, conditions: post-emergence, 336 h, SETFA: giant foxtail (Setaria faberi), application rate 140 g ai/ha, read-out: Visual Growth Reduction (%) 14 Days After Application, SETFA

SMILES | pest or weed control at 140 g/ha [%]
C=Cc1c(C(=O)OC)nc(-c2ccc(C(F)(F)F)c(F)c2)c(F)c1N [Compound 12] | 0 to 29

Same assay, conditions: post-emergence, 336 h, SORVU: grain sorghum (Sorghum vulgare), application rate 70 g ai/ha, read-out: Visual Growth Reduction (%) 14 Days After Application, SORVU

SMILES | pest or weed control at 70 g/ha [%]
C=Cc1c(C(=O)OC)nc(-c2ccc(C(F)(F)F)c(F)c2)c(F)c1N [Compound 12] | 0 to 29

Same assay, conditions: post-emergence, 336 h, SORVU: grain sorghum (Sorghum vulgare), application rate 140 g ai/ha, read-out: Visual Growth Reduction (%) 14 Days After Application, SORVU

SMILES | pest or weed control at 140 g/ha [%]
C=Cc1c(C(=O)OC)nc(-c2ccc(C(F)(F)F)c(F)c2)c(F)c1N [Compound 12] | 0 to 29

Same assay, conditions: post-emergence, 336 h, ZEAMX: maize, corn (Zea mays), application rate 70 g ai/ha, read-out: Visual Growth Reduction (%) 14 Days After Application, ZEAMX

SMILES | pest or weed control at 70 g/ha [%]
C=Cc1c(C(=O)OC)nc(-c2ccc(C(F)(F)F)c(F)c2)c(F)c1N [Compound 12] | 0 to 29

Same assay, conditions: post-emergence, 336 h, ZEAMX: maize, corn (Zea mays), application rate 140 g ai/ha, read-out: Visual Growth Reduction (%) 14 Days After Application, ZEAMX

SMILES | pest or weed control at 140 g/ha [%]
C=Cc1c(C(=O)OC)nc(-c2ccc(C(F)(F)F)c(F)c2)c(F)c1N [Compound 12] | 0 to 29
